# Data published in US6492375B2, “Partially saturated calcium channel blockers” (NeuroMed Technologies, Inc., priority 1998, dated 2002).
# Where “and” joins values, the source holds several entries; their conditions need not be identical. Identical values can stand only once.
# Molecular target: T1, rat α1B+α2b+β1b channels (Rattus norvegicus, UniProt Q02294)
# T1 construct: expressed in transfected cells
# Experiment: N-type calcium channel blocking activity, whole cell patch recordings
# Assay type: cell-based
# Details: N-type calcium channels expressed in human embryonic kidney cells; 5 mM barium as charge carrier
# Protocol: Antagonist activity was measured using whole cell patch recordings on human embryonic kidney cells either stably or transiently expressing rat α1B+α2b+β1b channels with 5 mM barium as a charge carrier.
# For transient expression, host cells, such as human embryonic kidney cells, HEK 293 (ATCC# CRL 1573) are grown in standard DMEM medium supplemented with 2 mM glutamine and 10% fetal bovine serum. HEK 293 cells are transfected by a standard calcium-phosphate-DNA coprecipitation method using the rat α1B+β1b+α2δ N-type calcium channel subunits in a vertebrate expression vector (for example, see Current Protocols in Molecular Biology).
# After an incubation period of from 24 to 72 hrs the culture medium is removed and replaced with external recording solution (see below). Whole cell patch clamp experiments are performed using an Axopatch 200B amplifier (Axon Instruments, Burlingame, Calif.) linked to an IBM compatible personal computer equipped with pCLAMP software. Borosilicate glass patch pipettes (Sutter Instrument Co., Novato, Calif.) were polished (Microforge, Narishige, Japan) to a resistance of about 4 MΩ when filled with cesium methanesulfonate internal solution (composition in MM: 109 CsCH3SO4, 4 MgCl2, 9 EGTA, 9 HEPES, pH 7.2). Cells were bathed in 5 mM Ba^++ (in mM: 5 BaCl2, 1 MgCl2, 10 HEPES, 40 tetraethylammonium chloride, 10 glucose, 87.5 CsCl pH 7.2). Current data shown were elicited by a train of 100 ms test pulses at 0.066 Hz from −100 mV and/or −80 mV to various potentials (min. −20 mV, max. +30 mV). Drugs were perfused directly into the vicinity of the cells using a microperfusion system.
# Normalized dose-response curves were fit (Sigmaplot 4.0, SPSS Inc., Chicago, Ill.) by the Hill equation to determine IC50 values. Steady-state inactivation curves were plotted as the normalized test pulse amplitude following 5 s inactivating prepulses at +10 mV increments. Inactivation curves were fit (Sigmaplot 4.0) with the Boltzman equation, Ipeak (normalized)=1/(1+exp((V-Vh)z/25.6)), where V and Vh are the conditioning and half inactivation potentials, respectively, and z is the slope factor. […]
# T1 sequence (Q02294 whole entry): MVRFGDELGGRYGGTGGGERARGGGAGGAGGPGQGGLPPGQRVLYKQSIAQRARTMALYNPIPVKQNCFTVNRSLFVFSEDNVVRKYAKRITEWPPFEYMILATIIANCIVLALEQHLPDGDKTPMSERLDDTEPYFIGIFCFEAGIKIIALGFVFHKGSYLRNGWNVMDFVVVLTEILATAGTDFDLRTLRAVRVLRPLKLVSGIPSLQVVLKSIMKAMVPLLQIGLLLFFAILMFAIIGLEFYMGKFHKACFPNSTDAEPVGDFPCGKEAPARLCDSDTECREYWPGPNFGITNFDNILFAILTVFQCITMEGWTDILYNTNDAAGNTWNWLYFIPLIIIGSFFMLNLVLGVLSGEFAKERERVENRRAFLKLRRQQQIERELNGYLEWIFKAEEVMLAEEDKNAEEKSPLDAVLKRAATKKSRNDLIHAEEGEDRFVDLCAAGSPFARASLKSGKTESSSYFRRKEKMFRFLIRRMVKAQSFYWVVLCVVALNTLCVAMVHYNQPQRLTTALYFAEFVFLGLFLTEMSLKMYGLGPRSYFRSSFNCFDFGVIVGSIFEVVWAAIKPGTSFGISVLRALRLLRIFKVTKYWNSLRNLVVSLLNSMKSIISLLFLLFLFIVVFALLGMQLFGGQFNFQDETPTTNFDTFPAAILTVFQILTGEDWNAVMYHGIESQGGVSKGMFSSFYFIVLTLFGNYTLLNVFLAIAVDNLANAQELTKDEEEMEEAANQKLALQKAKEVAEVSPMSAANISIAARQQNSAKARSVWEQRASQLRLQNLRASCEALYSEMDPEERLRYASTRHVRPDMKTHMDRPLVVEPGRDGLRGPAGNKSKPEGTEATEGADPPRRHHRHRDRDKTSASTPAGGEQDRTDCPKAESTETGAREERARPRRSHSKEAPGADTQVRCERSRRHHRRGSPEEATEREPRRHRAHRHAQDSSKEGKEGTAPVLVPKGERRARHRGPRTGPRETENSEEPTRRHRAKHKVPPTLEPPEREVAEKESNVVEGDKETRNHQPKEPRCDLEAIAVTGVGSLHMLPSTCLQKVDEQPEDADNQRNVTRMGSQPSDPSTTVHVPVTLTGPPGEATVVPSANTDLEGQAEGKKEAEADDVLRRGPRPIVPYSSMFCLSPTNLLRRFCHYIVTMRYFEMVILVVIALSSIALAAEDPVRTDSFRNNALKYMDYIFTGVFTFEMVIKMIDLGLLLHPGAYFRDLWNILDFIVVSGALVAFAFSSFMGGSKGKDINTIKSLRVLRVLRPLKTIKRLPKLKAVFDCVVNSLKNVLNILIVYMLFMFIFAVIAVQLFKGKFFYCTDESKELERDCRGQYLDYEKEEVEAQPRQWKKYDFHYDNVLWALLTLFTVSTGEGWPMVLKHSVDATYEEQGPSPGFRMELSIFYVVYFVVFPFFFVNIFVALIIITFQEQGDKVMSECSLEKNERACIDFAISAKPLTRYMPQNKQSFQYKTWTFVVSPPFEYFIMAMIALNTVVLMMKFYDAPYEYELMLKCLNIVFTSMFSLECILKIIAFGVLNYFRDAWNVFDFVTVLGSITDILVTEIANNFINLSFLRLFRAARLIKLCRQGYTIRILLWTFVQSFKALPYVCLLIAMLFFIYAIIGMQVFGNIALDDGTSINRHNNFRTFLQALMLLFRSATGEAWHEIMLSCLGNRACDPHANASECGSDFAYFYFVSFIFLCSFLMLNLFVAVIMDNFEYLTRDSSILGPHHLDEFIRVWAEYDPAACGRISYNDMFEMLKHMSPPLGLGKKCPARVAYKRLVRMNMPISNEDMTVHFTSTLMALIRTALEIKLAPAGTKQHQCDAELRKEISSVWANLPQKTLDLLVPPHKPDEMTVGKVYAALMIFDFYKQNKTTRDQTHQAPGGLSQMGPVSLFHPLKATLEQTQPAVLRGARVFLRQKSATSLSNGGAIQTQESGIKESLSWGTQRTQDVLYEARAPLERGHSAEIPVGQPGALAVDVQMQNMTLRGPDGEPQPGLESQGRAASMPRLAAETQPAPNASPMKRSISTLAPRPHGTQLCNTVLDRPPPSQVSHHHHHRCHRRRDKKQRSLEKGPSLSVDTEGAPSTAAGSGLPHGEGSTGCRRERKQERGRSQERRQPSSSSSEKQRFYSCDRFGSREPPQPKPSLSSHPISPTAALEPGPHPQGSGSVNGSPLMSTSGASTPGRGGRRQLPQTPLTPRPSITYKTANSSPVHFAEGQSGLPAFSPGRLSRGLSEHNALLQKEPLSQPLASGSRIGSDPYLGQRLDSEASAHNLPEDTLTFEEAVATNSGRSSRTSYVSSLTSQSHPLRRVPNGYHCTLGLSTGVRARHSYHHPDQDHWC
# T1 sequence (P54290 25-944 partner limits assumed): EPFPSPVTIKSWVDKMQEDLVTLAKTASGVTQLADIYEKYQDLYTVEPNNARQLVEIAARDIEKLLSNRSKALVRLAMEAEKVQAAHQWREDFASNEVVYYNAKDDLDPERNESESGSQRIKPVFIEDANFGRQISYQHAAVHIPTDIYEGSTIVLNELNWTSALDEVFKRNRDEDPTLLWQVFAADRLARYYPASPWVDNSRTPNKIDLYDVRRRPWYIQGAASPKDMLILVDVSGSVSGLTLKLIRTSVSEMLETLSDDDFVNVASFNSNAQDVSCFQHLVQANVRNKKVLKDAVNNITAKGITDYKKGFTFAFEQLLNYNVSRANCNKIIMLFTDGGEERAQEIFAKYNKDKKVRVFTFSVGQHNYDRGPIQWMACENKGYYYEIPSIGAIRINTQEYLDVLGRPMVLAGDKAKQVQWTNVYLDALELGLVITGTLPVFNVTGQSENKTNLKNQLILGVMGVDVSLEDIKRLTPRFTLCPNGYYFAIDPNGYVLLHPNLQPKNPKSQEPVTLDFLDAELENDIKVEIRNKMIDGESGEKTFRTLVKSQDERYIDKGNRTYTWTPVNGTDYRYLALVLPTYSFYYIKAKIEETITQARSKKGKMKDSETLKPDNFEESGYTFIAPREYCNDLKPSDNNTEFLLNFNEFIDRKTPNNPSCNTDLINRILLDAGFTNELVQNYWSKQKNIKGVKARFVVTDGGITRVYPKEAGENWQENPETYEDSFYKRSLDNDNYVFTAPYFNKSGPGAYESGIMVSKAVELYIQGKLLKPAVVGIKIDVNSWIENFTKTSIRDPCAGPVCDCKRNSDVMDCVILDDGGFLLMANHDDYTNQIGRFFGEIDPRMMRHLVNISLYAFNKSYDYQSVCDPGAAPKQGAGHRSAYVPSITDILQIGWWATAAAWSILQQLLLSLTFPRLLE
# T1 sequence (P54290 945-1091 partner limits assumed): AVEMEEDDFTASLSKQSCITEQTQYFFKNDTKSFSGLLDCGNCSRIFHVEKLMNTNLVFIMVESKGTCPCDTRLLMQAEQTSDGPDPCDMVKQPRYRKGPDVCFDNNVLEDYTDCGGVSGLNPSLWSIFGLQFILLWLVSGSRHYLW
# T1 sequence (P54283 whole entry partner): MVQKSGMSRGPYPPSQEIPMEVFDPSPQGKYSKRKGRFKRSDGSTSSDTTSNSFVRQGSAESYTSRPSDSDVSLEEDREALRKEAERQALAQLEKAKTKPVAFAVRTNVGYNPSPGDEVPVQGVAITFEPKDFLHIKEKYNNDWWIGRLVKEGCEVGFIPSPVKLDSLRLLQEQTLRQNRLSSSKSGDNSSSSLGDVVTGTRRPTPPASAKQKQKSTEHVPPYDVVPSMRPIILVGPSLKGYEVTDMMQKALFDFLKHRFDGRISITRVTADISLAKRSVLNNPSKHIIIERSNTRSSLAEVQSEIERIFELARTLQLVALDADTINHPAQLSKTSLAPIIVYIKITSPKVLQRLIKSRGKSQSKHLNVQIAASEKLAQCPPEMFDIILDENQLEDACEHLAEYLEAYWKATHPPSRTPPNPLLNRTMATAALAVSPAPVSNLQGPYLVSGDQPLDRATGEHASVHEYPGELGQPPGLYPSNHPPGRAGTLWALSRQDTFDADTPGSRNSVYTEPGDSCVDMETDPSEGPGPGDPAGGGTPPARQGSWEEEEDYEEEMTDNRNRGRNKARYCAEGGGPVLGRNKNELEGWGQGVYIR
row,IC50,Compound
1,10.2 µM,C(=Cc1ccccc1)CN1CCN(CC(C2CCCCC2)C2CCCCC2)CC1
2,5.9 µM,C(=Cc1ccccc1)CN1CCN(CCCCCC(c2ccccc2)C2CCCCC2)CC1 (stereo not drawn)
3,3.2 µM,C(=Cc1ccccc1)CN1CCN(CCCCCCC(c2ccccc2)C2CCCCC2)CC1 (stereo not drawn)
4,14.2 µM,"O=C(C(C1CCCCC1)C1CCCCC1)N1CCN(Cc2ccccc2)CC1 [Ya=c-hex, c-hex; X^1=CHCO; X^2=CH2; Ar=φ]"
5,~20 µM,"O=C(C(c1ccccc1)C1CCCCC1)N1CCN(Cc2ccccc2)CC1 (stereo not drawn) [Ya=φ, c-hex; X^1=CHCO; X^2=CH2; Ar=φ]"

row,Compound,IC50
1,O=C(C(C1CCCCC1)C1CCCCC1)N1CCN(CC=Cc2ccccc2)CC1,5.9 µM
2,C(=Cc1ccccc1)CN1CCN(CC(c2ccccc2)C2CCCCC2)CC1 (stereo not drawn),10.6 µM and ~5 µM
3,O=C(C(c1ccccc1)C1CCCCC1)N1CCN(CC=Cc2ccccc2)CC1 (stereo not drawn),~5 µM
4,O=C(CCCCCC(c1ccccc1)C1CCCCC1)N1CCN(CC=Cc2ccccc2)CC1 (stereo not drawn),12.2 µM
